Laboratory results: paper PMC3933693, “Novel Inhibitors of Mitochondrial sn-Glycerol 3-phosphate Dehydrogenase” (PLoS ONE, 2014)

Experiments:
mGPDH = target: T1, mGPDH (Rattus norvegicus, UniProt P35571); test: Superoxide/H2O2 production by mGPDH in isolated skeletal muscle mitochondria (Amplex UltraRed); assay type: biochemical; details: for mGPDH (% change from DMSO): primary screen, ∼2.5 µM, average of duplicates, 16.7 mM glycerol phosphate, no added calcium; for IC50: Fig. 4 structure/activity microplate assay, 0.08–80 µM, estimated, means of two replicates, read-out: mGPDH H2O2 production IC50; for inhibition at 80 µM: read-out: mGPDH H2O2 production (% change at 80 μM)
T1 construct: Activity of mGPDH in frozen-thawed skeletal muscle mitochondria was measured; from tissue; host or cells: skeletal muscle mitochondria
T1 sequence (P35571 43-727): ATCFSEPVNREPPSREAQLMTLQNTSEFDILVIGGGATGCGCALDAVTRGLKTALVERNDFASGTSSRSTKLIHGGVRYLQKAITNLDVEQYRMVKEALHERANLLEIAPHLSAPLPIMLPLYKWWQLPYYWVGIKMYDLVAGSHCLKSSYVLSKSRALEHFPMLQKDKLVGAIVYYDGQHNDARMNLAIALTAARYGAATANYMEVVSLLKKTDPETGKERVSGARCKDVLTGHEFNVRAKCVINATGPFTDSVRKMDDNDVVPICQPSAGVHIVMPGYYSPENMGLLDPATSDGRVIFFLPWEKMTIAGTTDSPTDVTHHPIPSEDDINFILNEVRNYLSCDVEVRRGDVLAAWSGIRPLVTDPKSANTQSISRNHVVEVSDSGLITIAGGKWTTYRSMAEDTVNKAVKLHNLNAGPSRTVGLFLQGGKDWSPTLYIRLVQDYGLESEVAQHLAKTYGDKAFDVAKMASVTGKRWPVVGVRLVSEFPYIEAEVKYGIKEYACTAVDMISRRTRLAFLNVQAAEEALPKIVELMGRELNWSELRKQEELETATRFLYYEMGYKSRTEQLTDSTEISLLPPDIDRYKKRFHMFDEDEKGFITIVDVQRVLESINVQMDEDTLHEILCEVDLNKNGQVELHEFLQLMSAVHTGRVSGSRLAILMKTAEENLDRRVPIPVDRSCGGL

[1] = tested on: flavin mononucleotide site of complex I (site IF) plus matrix NAD-linked dehydrogenases (site IF/DH); test: Site-specific H2O2 production from site IF/DH in skeletal muscle mitochondria; assay type: biochemical, rat; details: primary screen, ∼2.5 µM, average of duplicates
Experimental: (§1) Superoxide was measured as H2O2 after dismutation by endogenous or exogenous superoxide dismutase. Rates of total superoxide/H2O2 production were measured fluorimetrically using Amplex UltraRed in the presence of exogenous superoxide dismutase and horseradish peroxidase in a Varian Cary Eclipse fluorimeter as previously described. Rates of production from specific sites were determined as previously described using the following eight conditions: flavin mononucleotide site of complex I (site IF) plus matrix NAD-linked dehydrogenases (collectively "site IF/DH") with 5 mM glutamate, 5 mM malate, and 4 µM rotenone; ubiquinone-binding site of complex I (site IQ) with either 0.5 or 5 mM succinate; flavin site of complex II (site IIF) with either 15 µM palmitoylcarnitine, 2.5 µM antimycin A, and 2 µM myxothiazol or 0.5 mM succinate, 4 µM rotenone, 2.5 µM antimycin A, and 2 µM myxothiazol, [31]; mGPDH with 1.7 mM glycerol phosphate, 4 µM rotenone, 2.5 µM antimycin A, 2 µM myxothiazol, 1 mM malonate, and 250 nM free calcium; outer ubiquinone-binding site of complex III (site IIIQo) with either 0.5 or 5 mM succinate, 4 µM rotenone and 2.5 µM antimycin A [32]. Candidate small-molecule inhibitors were added prior to the start of measurements and H2O2 calibration curves were performed in the presence of tested compounds.
(§2) 3,200 compounds were tested initially at 2.5 µM (0.025% DMSO final) in duplicate on different plates against a panel of five distinct assays of site-specific superoxide/H2O2 production as described in the previous section with minor changes. […] Endpoint fluorescence was measured on a Perkin Elmer Victor V3 fluorescent plate reader. The fluorescence intensity of each well was normalized as % change from the average of eight DMSO controls on the same plate. Duplicate wells of each of four modulators of mitochondrial metabolism known to inhibit specific sites of superoxide/H2O2 production were included on each plate as positive controls and the resulting fluorescence levels set as −100% change from DMSO controls. Known inhibitors included 20 mM aspartate (for site IF/DH), 1 µM FCCP (for site IQ), 10 mM malonate (for site IIF), and 2 µM myxothiazol (for site IIIQo). The background fluorescence of the FCCP wells in the site IQ assay was used to normalize mGPDH plates run in parallel. To minimize position-dependent effects across each assay plate, Tukey’s two-way median polish was applied to fluorescence values after initial normalization, [36]. Tukey’s polish is an iterative subtraction of the median row and column values from each well’s given row or column. The procedure is repeated until sequential medians for each row and column are zero and positional gradients in fluorescence are eliminated.

[2] = tested on: ubiquinone-binding site of complex I (site IQ); test: Site-specific H2O2 production from site IQ in skeletal muscle mitochondria; assay type: biochemical, rat; details: 5 mM succinate; for IQ (% change from DMSO): primary screen, ∼2.5 µM, average of duplicates;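 as to all read-outs here: H2O2 from superoxide detected by Amplex UltraRed fluorescence with added superoxide dismutase and horseradish peroxidase, endpoint read 30–40 min after substrate addition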
Experimental: Superoxide was measured as H2O2 after dismutation by endogenous or exogenous superoxide dismutase. Rates of total superoxide/H2O2 production were measured fluorimetrically using Amplex UltraRed in the presence of exogenous superoxide dismutase and horseradish peroxidase in a Varian Cary Eclipse fluorimeter as previously described [27]. Rates of production from specific sites were determined as previously described using the following eight conditions: flavin mononucleotide site of complex I (site IF) plus matrix NAD-linked dehydrogenases (collectively "site IF/DH") with 5 mM glutamate, 5 mM malate, and 4 µM rotenone [28]; ubiquinone-binding site of complex I (site IQ) with either 0.5 or 5 mM succinate [29]; flavin site of complex II (site IIF) with either 15 µM palmitoylcarnitine, 2.5 µM antimycin A, and 2 µM myxothiazol or 0.5 mM succinate, 4 µM rotenone, 2.5 µM antimycin A, and 2 µM myxothiazol [30], [31]; mGPDH with 1.7 mM glycerol phosphate, 4 µM rotenone, 2.5 µM antimycin A, 2 µM myxothiazol, 1 mM malonate, and 250 nM free calcium; outer ubiquinone-binding site of complex III (site IIIQo) with either 0.5 or 5 mM succinate, 4 µM rotenone and 2.5 µM antimycin A [32]. Candidate small-molecule inhibitors were added prior to the start of measurements and H2O2 calibration curves were performed in the presence of tested compounds.
3,200 compounds were tested initially at 2.5 µM (0.025% DMSO final) in duplicate on different plates against a panel of five distinct assays of site-specific superoxide/H2O2 production as described in the previous section with minor changes. […] Endpoint fluorescence was measured on a Perkin Elmer Victor V3 fluorescent plate reader. The fluorescence intensity of each well was normalized as % change from the average of eight DMSO controls on the same plate. Duplicate wells of each of four modulators of mitochondrial metabolism known to inhibit specific sites of superoxide/H2O2 production were included on each plate as positive controls and the resulting fluorescence levels set as −100% change from DMSO controls. Known inhibitors included 20 mM aspartate (for site IF/DH), 1 µM FCCP (for site IQ), 10 mM malonate (for site IIF), and 2 µM myxothiazol (for site IIIQo). The background fluorescence of the FCCP wells in the site IQ assay was used to normalize mGPDH plates run in parallel. To minimize position-dependent effects across each assay plate, Tukey’s two-way median polish was applied to fluorescence values after initial normalization [35], [36]. Tukey’s polish is an iterative subtraction of the median row and column values from each well’s given row or column. The procedure is repeated until sequential medians for each row and column are zero and positional gradients in fluorescence are eliminated.
These 20 compounds were tested in duplicate at 0.08–80 µM (0.1% DMSO final) in microplate format for effects on site-specific H2O2 production as described above. […] Plates were incubated in the dark at room temperature for 30–40 min (H2O2) or 10–15 min (ΔΨm) after the addition of substrate, and endpoint fluorescence was measured on the Victor plate reader. Endpoints were chosen for the H2O2 assays to provide good signal-to-noise ratios and linear rates of change without the indicator dye limiting the reaction.

[3] = target: T2, flavin site of complex II (site IIF) (Rattus norvegicus, UniProt Q920L2); test: Site-specific H2O2 production from site IIF in skeletal muscle mitochondria; assay type: biochemical; details: primary screen, ∼2.5 µM, average of duplicates; palmitoylcarnitine
T2 construct: from tissue; host or cells: skeletal muscle mitochondria
T2 sequence (Q920L2 35-656): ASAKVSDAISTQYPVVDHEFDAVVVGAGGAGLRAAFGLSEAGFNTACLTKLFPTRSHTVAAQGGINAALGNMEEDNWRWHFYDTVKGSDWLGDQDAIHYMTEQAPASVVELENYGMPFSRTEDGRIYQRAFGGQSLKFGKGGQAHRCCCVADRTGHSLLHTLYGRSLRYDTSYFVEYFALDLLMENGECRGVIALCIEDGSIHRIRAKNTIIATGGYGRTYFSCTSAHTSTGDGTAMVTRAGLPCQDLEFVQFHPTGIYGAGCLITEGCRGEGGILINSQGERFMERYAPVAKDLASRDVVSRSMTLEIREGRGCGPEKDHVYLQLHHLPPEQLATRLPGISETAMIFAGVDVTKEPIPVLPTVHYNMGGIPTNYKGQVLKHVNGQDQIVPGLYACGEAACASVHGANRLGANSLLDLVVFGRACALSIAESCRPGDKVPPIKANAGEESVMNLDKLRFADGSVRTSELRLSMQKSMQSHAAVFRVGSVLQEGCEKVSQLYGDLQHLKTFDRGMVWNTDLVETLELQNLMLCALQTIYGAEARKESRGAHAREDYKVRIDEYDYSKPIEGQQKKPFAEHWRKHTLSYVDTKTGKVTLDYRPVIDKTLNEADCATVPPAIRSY
T2 sequence (P21913 31-282 partner): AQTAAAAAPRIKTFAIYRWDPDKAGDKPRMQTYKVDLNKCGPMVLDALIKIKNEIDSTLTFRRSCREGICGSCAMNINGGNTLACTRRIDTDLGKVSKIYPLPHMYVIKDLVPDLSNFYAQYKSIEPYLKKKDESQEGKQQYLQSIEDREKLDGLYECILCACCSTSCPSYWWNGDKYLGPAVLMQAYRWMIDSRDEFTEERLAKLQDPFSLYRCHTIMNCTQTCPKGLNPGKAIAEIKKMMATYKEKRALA
T2 sequence (Q641Z9 30-169 partner limits assumed): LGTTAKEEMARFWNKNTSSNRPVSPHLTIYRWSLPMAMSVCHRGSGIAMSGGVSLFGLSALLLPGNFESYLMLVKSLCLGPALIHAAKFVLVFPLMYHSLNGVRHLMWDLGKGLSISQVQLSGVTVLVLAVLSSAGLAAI
T2 sequence (Q6PCT8 57-159 partner): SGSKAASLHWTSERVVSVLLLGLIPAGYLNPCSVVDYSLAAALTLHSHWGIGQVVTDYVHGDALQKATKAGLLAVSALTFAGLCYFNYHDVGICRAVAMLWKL
Experimental: as §1, §2

[4] = target: T3, outer ubiquinone-binding site of complex III (site IIIQo) (Rattus norvegicus, UniProt P00159+P20788); test: Site-specific H2O2 production from site IIIQo in skeletal muscle mitochondria; assay type: biochemical; details: primary screen, ∼2.5 µM, average of duplicates; 5 mM succinate
T3 construct: from tissue; host or cells: skeletal muscle mitochondria
Experimental: as §1, §2

[5] = tested on: skeletal muscle mitochondria; test: Mitochondrial membrane potential (ΔΨm, TMRM) powered by glutamate plus malate; assay type: biochemical, rat; details: for ΔΨm (% change from DMSO): primary screen, ∼2.5 µM, average of duplicates, glutamate and malate; for ΔΨm with Glu + Mal + Nig (% change at 80 μM) / ΔΨm with Glu + Mal (% change at 80 μM): 5 mM glutamate, 5 mM malate; for ΔΨm with Glu + Mal + Nig (% change at 80 μM): with nigericin; for ΔΨm with Glu + Mal (% change at 80 μM): without nigericin
Experimental: (§3) Mitochondrial membrane potential (ΔΨm) was estimated fluorimetrically as described previously [33] on the Varian fluorimeter, except the potentiometric dye TMRM was used in quench-mode in place of safranine O [34]. […] The effect of putative small-molecule inhibitors was normalized as the % change in fluorescence between vehicle treatment and complete depolarization by the uncoupler carbonyl cyanide-4-(trifluoromethoxy)phenylhydrazone (FCCP, 2 µM) added at the end of each run. When indicated, the K^+/H^+ exchanger nigericin (80 ng ⋅ ml^−1) was added to collapse the pH gradient across the mitochondrial inner membrane (ΔpH) and maximize ΔΨm.
(§4) All assays were performed with stirring at 37°C.
(§5) Additionally, four microplate assays for ΔΨm were run in parallel to the H2O2 assays. These assays were as described under “Measurement of mitochondrial H2O2 production and membrane potential” except that each substrate condition was assayed in a separate microplate. […] Plates were incubated in the dark at room temperature for 30–40 min (H2O2) or 10–15 min (ΔΨm) after the addition of substrate, and endpoint fluorescence was measured on the Victor plate reader. […] Endpoints for the ΔΨm assays were determined in pilot experiments as the times for TMRM accumulation to reach a steady state. At room temperature, this was typically ∼ 5 min and remained stable for at least 30 min. Endpoint fluorescence values were normalized as described in the previous section with wells containing FCCP serving as positive controls for the ΔΨm assays.

[6] = tested on: skeletal muscle mitochondria; test: Mitochondrial membrane potential (ΔΨm, TMRM) powered by glycerol phosphate; assay type: biochemical, rat; details: 80 μM; 16.7 mM glycerol phosphate, 4 µM rotenone, nigericin
Experimental: as §3, §4, §5

Row | SMILES | mGPDH (% change from DMSO) (mGPDH) | IF/DH (% change from DMSO) [1] | IQ (% change from DMSO) [2] | IIF (% change from DMSO) [3] | IIIQo (% change from DMSO) [4] | ΔΨm (% change from DMSO) [5] | IC50 (mGPDH) | inhibition at 80 µM (mGPDH) | IQ H2O2 production with 5 mM Suc (% change at 80 μM) [2] | ΔΨm with Glu + Mal + Nig (% change at 80 μM) [5] | ΔΨm with Glu + Mal (% change at 80 μM) [5] | ΔΨm with GP + Nig (% change at 80 μM) [6] | lowering of potency versus mGPDH ROS production relative to iGP-1 (mGPDH; ortho- to para- positioning)
1 | O=C(Nc1ccc(O)cc1)c1ccco1 [compound 5471987] | -26.4% | -52.3% | -9.9% | -28.0% | -8.4% | 0.0125% |  |  |  |  |  |  | 
2 | Cn1c(/C=C/c2ccc(Cl)cc2)nc2ccccc21 [compound 5663561] | -12.9% | -9.1% | -3.9% | -11.9% | -4.7% | 0.0494% |  |  |  |  |  |  | 
3 | Nc1nc(-c2ccc(Cl)c(Cl)c2)cs1 [compound 5690819] | -10.3% | -0.9% | -3.1% | -7.3% | -4.6% | 0.636% |  |  |  |  |  |  | 
4 | O=C(O)CCC(=O)Nc1ccc(-c2nc3ccccc3s2)cc1 [iGP-3] |  |  |  |  |  |  | 15 µM | 50% | -69% | 20% | 148% | -26% | 
5 | Cc1ccc2[nH]c(-c3ccc(NC(=O)CCC(=O)O)cc3)nc2c1 [iGP-4] |  |  |  |  |  |  | 5 µM | 69% | -20% | 11% | 49% | -35% | 
6 | O=C(O)CCC(=O)Nc1ccc(-c2nc3cc(C(=O)c4ccccc4)ccc3[nH]2)cc1 [iGP-6] |  |  |  |  |  |  | 3 µM | 55% | -28% | 17% | 93% | -59% | 
7 | O=C(O)CCC(=O)Nc1ccc(-c2nc3cc(NC(=O)CCC(=O)O)ccc3[nH]2)cc1 [iGP-7] |  |  |  |  |  |  |  | 21% | 3% | 2% | 25% | 4% | 
8 | O=C(O)CCC(=O)Nc1cccc(-c2nc3ccccc3[nH]2)c1 [iGP-8] |  |  |  |  |  |  | 50 µM | 44% | -14% | 1% | 3% | -7% | more than 5 fold
9 | CCCC(=O)Nc1ccc(-c2nc3cc4ccccc4cc3[nH]2)cc1 [iGP-9] |  |  |  |  |  |  |  | 2% | -1% | 5% | 26% | 5% | 
10 | c1ccc2[nH]c(-c3ccc(-c4nc5ccccc5[nH]4)cc3)nc2c1 [iGP-10] |  |  |  |  |  |  |  | 0% | -77% | -78% | -58% | -78% | 
11 | C=C(C)C(=O)Nc1ccc(-c2nc3ccccc3[nH]2)cc1 [iGP-11] |  |  |  |  |  |  |  | 5% | -54% | -1% | 54% | 1% | 
12 | CC(=O)Nc1ccc(-c2nc3ccccc3[nH]2)cc1 [iGP-12] |  |  |  |  |  |  |  | 28% | -21% | 2% | 10% | 2% | 
13 | O=C(Nc1ccc(-c2nc3ccccc3[nH]2)cc1)c1ccco1 [iGP-13] |  |  |  |  |  |  | 80 µM | 37% | -82% | 10% | 23% | 13% | 
14 | CCOc1ccc(C(=O)Nc2ccc(-c3nc4ccccc4[nH]3)cc2)cc1 [iGP-15] |  |  |  |  |  |  |  | -11% | -15% | -42% | 10% | -25% | 
15 | O=C(Nc1ccc(-c2nc3ccccc3[nH]2)cc1)C1CC1 [iGP-16] |  |  |  |  |  |  |  | 7% | -24% | 1% | 4% | 2% | 
16 | CCCCCCNC(=O)CCC(=O)O [iGP-17] |  |  |  |  |  |  |  | -6% | -1% | -1% | -1% | 0% | 
17 | O=C(O)CCC(=O)Nc1ccc(Cl)cc1 [iGP-18] |  |  |  |  |  |  |  | -2% | 6% | -3% | -9% | -1% | 
